Source: patent US20240018161A1, “MODULATORS OF CYSTIC FIBROSIS TRANSMEMBRANE CONDUCTANCE REGULATOR” (VERTEX PHARMACEUTICALS INCORPORATED, priority 2020, published 2024)
Like-named read-outs stand apart in the source and are kept apart here.

Experiments:
[1] = 13-membered ring
[2] = molecular target: T1, CFTR-mediated chloride transport in human intestinal epithelial enteroid cells (Homo sapiens, UniProt P13569); experiment: Membrane potential dye, Enteroid Assay B; assay type: cell-based; conditions: Enteroid Assay B; for EC50: read-out: Ent. B EC50
T1 sequence (P13569 with tags, fused parts or gaps DEL508-508): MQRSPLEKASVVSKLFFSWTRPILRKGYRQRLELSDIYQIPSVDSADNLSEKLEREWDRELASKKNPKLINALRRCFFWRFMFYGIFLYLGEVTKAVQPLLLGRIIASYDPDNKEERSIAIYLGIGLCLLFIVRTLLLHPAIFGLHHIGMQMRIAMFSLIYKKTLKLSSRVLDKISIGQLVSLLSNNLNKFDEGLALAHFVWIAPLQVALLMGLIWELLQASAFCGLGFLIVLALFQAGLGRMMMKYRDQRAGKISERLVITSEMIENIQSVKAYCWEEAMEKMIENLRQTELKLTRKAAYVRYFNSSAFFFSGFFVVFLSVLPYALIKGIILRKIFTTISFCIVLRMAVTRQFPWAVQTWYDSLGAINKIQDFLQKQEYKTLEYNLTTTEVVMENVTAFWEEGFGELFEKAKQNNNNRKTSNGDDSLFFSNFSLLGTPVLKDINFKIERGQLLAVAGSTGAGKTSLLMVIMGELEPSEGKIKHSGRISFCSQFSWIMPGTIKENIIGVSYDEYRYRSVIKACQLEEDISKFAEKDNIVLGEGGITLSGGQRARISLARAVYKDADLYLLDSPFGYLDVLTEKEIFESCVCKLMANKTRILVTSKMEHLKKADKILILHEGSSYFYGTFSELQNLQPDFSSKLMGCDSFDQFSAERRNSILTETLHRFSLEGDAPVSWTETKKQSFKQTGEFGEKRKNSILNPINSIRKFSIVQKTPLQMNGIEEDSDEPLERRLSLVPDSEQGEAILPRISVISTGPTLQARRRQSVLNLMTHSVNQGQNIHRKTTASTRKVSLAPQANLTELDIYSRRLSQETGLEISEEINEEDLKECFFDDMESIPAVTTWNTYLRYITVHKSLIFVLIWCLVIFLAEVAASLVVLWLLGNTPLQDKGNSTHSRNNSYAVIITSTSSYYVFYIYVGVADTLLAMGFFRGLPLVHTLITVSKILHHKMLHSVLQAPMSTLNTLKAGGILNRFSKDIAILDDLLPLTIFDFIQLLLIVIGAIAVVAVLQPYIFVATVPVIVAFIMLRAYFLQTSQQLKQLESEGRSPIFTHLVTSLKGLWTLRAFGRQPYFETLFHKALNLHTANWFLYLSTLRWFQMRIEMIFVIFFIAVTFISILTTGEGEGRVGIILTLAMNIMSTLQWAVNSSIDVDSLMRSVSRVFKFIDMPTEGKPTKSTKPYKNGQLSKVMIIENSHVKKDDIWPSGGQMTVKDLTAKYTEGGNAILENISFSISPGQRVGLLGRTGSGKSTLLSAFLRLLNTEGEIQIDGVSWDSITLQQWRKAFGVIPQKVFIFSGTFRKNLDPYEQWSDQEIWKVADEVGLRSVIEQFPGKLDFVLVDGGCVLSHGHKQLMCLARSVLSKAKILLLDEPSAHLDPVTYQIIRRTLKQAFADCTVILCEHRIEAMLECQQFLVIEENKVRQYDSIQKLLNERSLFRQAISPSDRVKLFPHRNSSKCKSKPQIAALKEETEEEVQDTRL
How it was run: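 After dye loading (20 μM methyl oxonol with 30 μM CaCCinh-A01 and 30 μM Chicago Sky Blue, 25 min at room temperature), enteroid cells were exchanged into chloride-free buffer. Fluorescence was recorded for 15 min after adding stimulation solution to drive CFTR-mediated chloride transport.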

[3] = molecular target: T1, CFTR-mediated chloride transport in human intestinal epithelial enteroid cells; experiment: Membrane potential dye, Enteroid Assay A; assay type: cell-based; conditions: for EC50: read-out: Ent. A EC50
How it was run: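 Membrane potential dye (20 μM methyl oxonol, with 30 μM CaCCinh-A01 and 30 μM Chicago Sky Blue) loaded 25 min at room temperature into ROCK-inhibitor-seeded human enteroid cells. Chloride-free stimulation buffer triggered transport, followed by 15 min fluorescence. % Activity relative to 3 μM/3 μM/300 nM triple-combination control.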

[4] = from Cc1cccc(C)c1-c1cc(OC2CCCC(c3ncc(OC(C)C)cn3)N[C@@H]2CC(C)C)nc(NS(=O)(=O)c2cccc(C(=O)O)c2)n1, amide bond, CDMT/NMM, DMF, 7.3 mM, 60.0 h
[5] = enteroid cells incubated with test compound 18-24 hours, acute 10 μM forskolin and 300 nM N-[2,4-bis(1,1-dimethylethyl)-5-hydroxyphenyl]-1,4-dihydro-4-oxoquinoline-3-carboxamide
[6] = percentage of chloride transport of triple combination control (3 μM N-[(6-amino-2-pyridyl)sulfonyl]-6-(3-fluoro-5-isobutoxy-phenyl)-2-[(4S)-2,2,4-trimethylpyrrolidin-1-yl]pyridine-3-carboxamide based)

Structure (SMILES): Cc1cccc(C)c1-c1cc2nc(n1)NS(=N)(=O)c1cccc(c1)C(=O)N1CCN(C(=O)OC(C)(C)C)CC(C1)O2 (centres unmarked)
- ring closure, isolated yield ([1]; from Cc1cccc(C)c1-c1cc(Cl)nc(NS(=N)(=O)c2cccc(C(=O)N3CCN(C(=O)OC(C)(C)C)CC(O)C3)c2)n1, snar bond, NaH, DMF, 15.3 mM, 1.5 h): 23%

Structure (SMILES): Cc1cccc(C)c1-c1cc2nc(n1)NS(=O)(=O)c1cccc(c1)C(=O)N1C(c3ncc(OC(C)C)cn3)CCCC(O2)[C@H]1CC(C)C (some centres unmarked)
- ring closure, isolated yield [1, 4]: 14%

Structure (SMILES): Cc1cccc(C)c1-c1cc2nc(n1)NS(=O)(=O)c1cccc(c1)C(=O)N1CC(C)(C)CC(O2)C1CC(C)C (centres unmarked)
- ring closure, isolated yield ([1]; from Cc1cccc(C)c1-c1cc(Cl)nc(NS(=O)(=O)c2cccc(C(=O)N3CC(C)(C)CC(O)C3CC(C)C)c2)n1, snar bond, NaH, DMF, 16.4 mM, 25.0 °C, 16.0 h): 23%
- ring closure, isolated yield ([1]; from Cc1cccc(C)c1-c1cc(Cl)nc(NS(=O)(=O)c2cccc(C(=O)N3CC(C)(C)CC(O)C3CC(C)C)c2)n1, snar bond, NaH, DMF, 17.8 mM, 25.0 °C, 8.0 h): 72%

Structure (SMILES): Cc1cccc(C)c1-c1cc2nc(n1)NS(=O)(=O)c1cccc(c1)C(=O)N1CCN(C(=O)OC(C)(C)C)CC1CO2 (centres unmarked)
- ring closure, isolated yield ([1]; from Cc1cccc(C)c1-c1cc(OCC2CN(C(=O)OC(C)(C)C)CCN2)nc(NS(=O)(=O)c2cccc(C(=O)O)c2)n1, amide bond, HATU/DIEA, DMF, 13.8 mM, 25.0 °C, 2.0 h, 2 steps): 81%

Structure (SMILES): Cc1cccc(C)c1-c1cc2nc(n1)NS(=O)(=O)c1cccc(c1)C(=O)N1CCN(C(=O)OC(C)(C)C)C[C@H](C1)O2
- ring closure, isolated yield ([1]; from Cc1cccc(C)c1-c1cc(Cl)nc(NS(=O)(=O)c2cccc(C(=O)N3CCN(C(=O)OC(C)(C)C)C[C@@H](O)C3)c2)n1, snar bond, NaH, DMF, 33.1 mM, 0.0 °C, 3.5 h): 64%

Structure (SMILES): Cc1cccc(C)c1-c1cc2nc(n1)NS(=O)(=O)c1cccc(c1)C(=O)N1CCN(C(=O)OC(C)(C)C)C[C@H]1CO2
- ring closure, isolated yield ([1]; from Cc1cccc(C)c1-c1cc(Cl)nc(NS(=O)(=O)c2cccc(C(=O)N3CCN(C(=O)OC(C)(C)C)C[C@H]3CO)c2)n1, snar bond, NaH, NMP, 4.4 mM, 70.0 °C, 2.0 h, 2 steps): 19%

Structure (SMILES): Cc1cccc(C)c1-c1cc2nc(n1)NS(=O)(=O)c1cccc(c1)C(=O)N1CCN(C(=O)OCc3ccccc3)C[C@H](C1)O2
- ring closure, isolated yield ([1]; from Cc1cccc(C)c1-c1cc(Cl)nc(NS(=O)(=O)c2cccc(C(=O)N3CCN(C(=O)OCc4ccccc4)C[C@@H](O)C3)c2)n1, snar bond, NaH, DMF, 30.4 mM, 5.0 °C, 2.0 h): 44%

Structure (SMILES): Cc1cccc(C)c1-c1cc2nc(n1)NS(=O)(=O)c1cccc(c1)C(=O)N1Cc3cc(C(C)(C)C)ccc3C(C1)O2 (centres unmarked)
- ring closure, isolated yield ([1]; from Cc1cccc(C)c1-c1cc(OC2CNCc3cc(C(C)(C)C)ccc32)nc(NS(=O)(=O)c2cccc(C(=O)O)c2)n1, amide bond, HATU/NaOtBu, THF/DMF, 25.0 °C, 0.25 h, 3 steps): 14%

Structure (SMILES): Cc1cccc(C)c1-c1cc2nc(n1)NS(=O)(=O)c1cccc(c1)C(=O)N1CCc3cc(C(C)(C)C)ccc3C(O2)[C@H]1CC(C)C (single isomer, unassigned) [Compound 237]
- ring closure, yield after HPLC (from Cc1cccc(C)c1-c1cc(OC2c3ccc(C(C)(C)C)cc3CCN[C@@H]2CC(C)C)nc(NS(=O)(=O)c2cccc(C(=O)O)c2)n1, amide bond, 13-membered ring, NaOtBu, HATU, THF/DMF, 19.2 mM, 0.0 °C, 0.08 h, 2 steps): 18%
- EC50 [2]: < 1000 nM

Structure (SMILES): Cc1cccc(C)c1-c1cc2nc(n1)NS(=O)(=O)c1cccc(c1)C(=O)N1CCN(C(=O)OCc3ccccc3)CC(O2)[C@H]1C (single isomer, unassigned; diastereomer 1)
- ring closure, isolated yield ([1]; from Cc1cccc(C)c1-c1cc(Cl)nc(NS(=O)(=O)c2cccc(C(=O)N3CCN(C(=O)OCc4ccccc4)CC(O)[C@H]3C)c2)n1, snar bond, NaH, DMF, 29.4 mM, 0.0 °C, 1.25 h): 17%

Structure (SMILES): Cc1cccc(C)c1-c1cc2nc(n1)NS(=O)(=O)c1cccc(c1)C(=O)N1C(c3ncc(OC(C)C)cn3)CCCC(O2)[C@H]1CC(C)C (single isomer, unassigned; isomer 1)
- ring closure, isolated yield ([1]; from Cc1cccc(C)c1-c1cc(OC2CCCC(c3ncc(OC(C)C)cn3)N[C@@H]2CC(C)C)nc(NS(=O)(=O)c2cccc(C(=O)O)c2)n1, amide bond, CDMT/NMM, DMF, 16.3 mM, 24.0 h): 23%

Structure (SMILES): Cc1cccc(C)c1-c1cc2nc(n1)NS(=O)(=O)c1cccc(c1)C(=O)N1C(c3ncc(OC(C)C)cn3)CCCC(O2)[C@H]1CC(C)C (single isomer, unassigned; isomer 2)
- ring closure, isolated yield [1, 4]: 27%

Structure (SMILES): Cc1cccc(C)c1-c1cc2nc(n1)NS(=O)(=O)c1cccc(c1)C(=O)N1C(c3ncc(OC(C)C)cn3)CCCC(CC(C)C)C1CO2 (single isomer, unassigned; isomer a)
- ring closure, isolated yield ([1]; from Cc1cccc(C)c1-c1cc(OCC2NC(c3ncc(OC(C)C)cn3)CCCC2CC(C)C)nc(NS(=O)(=O)c2cccc(C(=O)O)c2)n1, amide bond, CDMT/NMM, DMF, 16.2 mM, 40.0 h, 2 steps): 35%

Structure (SMILES): Cc1cccc(C)c1-c1cc2nc(n1)NS(=O)(=O)c1cccc(c1)C(=O)N1C[C@@H](CCCC1CC(C)C)O2 (stereo partly drawn) [Compound 181, (16R)-12-(2,6-Dimethylphenyl)-20-(2-methylpropyl)-15-oxa-8λ^6-thia-1,9,11,22-tetraazatetracyclo[14.4.1.13,7.110,14]tricosa-3(23),4,6,10(22),11,13-hexaene-2,8,8-trione]
- ring closure, yield after HPLC (from Cc1cccc(C)c1-c1cc(Cl)nc(NS(=O)(=O)c2cccc(C(=O)N3C[C@H](O)CCCC3CC(C)C)c2)n1, snar bond, 13-membered ring, NaOtBu, THF, 17.5 mM, 25.0 °C, 24.0 h): 4%
- Ent. B Max Activity (%) [2]: ++ (++ is 30-60%)
- EC50 [2]: < 1000 nM

Structure (SMILES): Cc1cccc(C)c1-c1cc2nc(n1)NS(=O)(=O)c1cccc(c1)C(=O)N1Cc3ncccc3C(C1)O2 (centres unmarked) [Compound 198, 12-(2,6-Dimethylphenyl)-15-oxa-8λ^6-thia-1,9,11,21,25-pentaazapentacyclo[14.7.1.13,7.110,14.017,22]hexacosa-3,5,7(26),10(25),11,13,17,19,21-nonaene-2,8,8-trione]
- EC50 [3, 5]: 1000 to 3000 nM
- Ent. A Max Activity (%) [3, 6]: ++ (++ is 30-60%)
- ring closure, yield after HPLC (from Cc1cccc(C)c1-c1cc(OC2CNCc3ncccc32)nc(NS(=O)(=O)c2cccc(C(=O)O)c2)n1, amide bond, 13-membered ring, HATU/DIEA, NMP, 132.0 mM, 25.0 °C, 1.0 h): 44%

Structure (SMILES): Cc1cccc(C)c1-c1cc2nc(n1)NS(=O)(=O)c1cccc(c1)C(=O)N1CC[C@@H](C1)O2 [Compound 213, (3S)-17-(2,6-Dimethylphenyl)-2-oxa-13λ^6-thia-6,14,16,19-tetraazatetracyclo[13.3.1.13,6.18,12]henicosa-1(19),8(20),9,11,15,17-hexaene-7,13,13-trione]
- EC50 [3, 5]: 3000 to 30000 nM
- Ent. A Max Activity (%) [3, 6]: +++ (+++ is >60%)
- ring closure, yield after HPLC (from Cc1cccc(C)c1-c1cc(O[C@H]2CCNC2)nc(NS(=O)(=O)c2cccc(C(=O)O)c2)n1, amide bond, 13-membered ring, HATU/TEA, DMF, 53.7 mM, 25.0 °C, 1.0 h): 20%

Structure (SMILES): Cc1cccc(C)c1-c1cc2nc(n1)NS(=O)(=O)c1cccc(c1)C(=O)N1CCC(O2)c2ccccc2C1 (centres unmarked) [Compound 227, 12-(2,6-dimethylphenyl)-15-oxa-8λ^6-thia-1,9,11,26-tetraazapentacyclo[14.7.2.13,7.110,14.017,22]heptacosa-3(27),4,6,10(26),11,13,17,19,21-nonaene-2,8,8-trione]
- EC50 [3, 5]: < 1000 nM
- Ent. A Max Activity (%) [3, 6]: ++ (++ is 30-60%)
- ring closure, yield after HPLC (from Cc1cccc(C)c1-c1cc(OC2CCNCc3ccccc32)nc(NS(=O)(=O)c2cccc(C(=O)O)c2)n1, amide bond, 14-membered ring, HATU/DIEA, DMF, 13.1 mM, 25.0 °C, 0.083 h, 3 steps): 12%

Structure (SMILES): Cc1cccc(C)c1-c1cc2nc(n1)NS(=O)(=O)c1cccc(c1)C(=O)N1CC(CCc3ccccc31)O2 (centres unmarked) [Compound 228, 5-(2,6-Dimethylphenyl)-2-oxa-9λ^6-thia-6,8,16,27-tetraazapentacyclo[14.8.1.13,7.110,14.017,22]heptacosa-3(27),4,6,10,12,14(26),17(22),18,20-nonaene-9,9,15-trione]
- Ent. A Max Activity (%) ([3]; Enteroid Assay A): ++ (++ is 30-60%)
- EC50 ([3]; Enteroid Assay A): 1000 to 3000 nM
- ring closure, yield after HPLC (from Cc1cccc(C)c1-c1cc(Cl)nc(NS(=O)(=O)c2cccc(C(=O)N3CC(O)CCc4ccccc43)c2)n1, snar bond, 13-membered ring, NaH, DMF, 21.9 mM, 25.0 °C, 48.0 h): 15%

Structure (SMILES): Cc1cccc(C)c1-c1cc2nc(n1)NS(=O)(=O)c1cccc(c1)C(=O)N1Cc3ccccc3C(CO2)C1 (centres unmarked) [Compound 238, 12-(2,6-Dimethylphenyl)-15-oxa-8λ^6-thia-1,9,11,26-tetraazapentacyclo[15.7.1.13,7.110,14.018,23]heptacosa-3,5,7(27),10(26),11,13,18,20,22-nonaene-2,8,8-trione]
- ring closure, yield after HPLC (from Cc1cccc(C)c1-c1cc(OCC2CNCc3ccccc32)nc(NS(=O)(=O)c2cccc(C(=O)O)c2)n1, amide bond, 14-membered ring, HATU/DIEA, DMF/THF, 136.0 mM, 16.0 h, 2 steps): 5%
- EC50 [2]: < 1000 nM
